Test results taken from patent US20120053165A1, “Novel Phenyl Imidazoles and Phenyl Triazoles As Gamma-Secretase Modulators” (Pfizer Inc., priority 2009, published 2012).
Where a name gives a salt, the structure may show the parent alone.

test system: production of amyloid beta protein Aβ(1-42) in human WT-APP overexpressing CHO cells; settings: Homo sapiens, CHO, read-out: Aβ 42 IC50
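Further: Aβ(1-42) released into conditioned medium captured by ELISA after roughly 24 h compound exposure, vehicle and inhibitor controls defining maximal and minimal inhibition.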
Protocol: Cell-Based γ-Secretase Assay with ELISA Readout
The ability of compounds to modulate production of amyloid beta protein Aβ(1-42) was determined using human WT-APP overexpressing CHO cells. Cells were plated at 22,000 cells/100 μL well in 96 well tissue culture treated, clear plates (Falcon) in DMEM/F12 based medium and incubated for 24 hours at 37° C. […] Compounds were added in fresh medium to achieve 1% final DMSO. Appropriate vehicle and inhibitor controls were added to obtain maximum and minimum inhibition values for the assay before the plates were incubated for about 24 hours at 37° C.
Coating of ELISA assay plates was initiated by addition of 50 μL/well of an in house Aβ(1-42) specific antibody at (4 μg/mL) in 0.1 M NaHCO3 (pH 9.0) into black 384-well Maxisorp® plates (Nunc) and incubated overnight at 4° C. […] Ambient temperature incubation was allowed to proceed for a minimum of two hours before washing 2×100 μL with Wash Buffer (Dulbecco's PBS, 0.05% Tween 20). Assay Buffer (Dulbecco's PBS, 1.0% BSA (Sigma A7030), 0.05% Tween 20) 20 μL/well is then added.
After incubation overnight at 37° C., 5% CO2, 40 μL (in duplicate) of experimental conditioned media are transferred into wells of the blocked ELISA plates containing the capture antibody, followed by overnight incubation at 4° C.
After overnight incubation of the ELISA assay plates at 4° C., unbound Aβ peptides were removed thorough (4×100 μL) washes with Wash Buffer.

**Q.** With COc1cc(C(=O)NCCc2c(C)[nH]c3c(Cl)cc(Cl)cc23)ccc1-n1cnc(C)c1 [Example 51, N-[2-(5,7-dichloro-2-methyl-1H-indol-3-yl)ethyl]-3-methoxy-4-(4-methyl-1H-imidazol-1-yl)benzamide] as the molecule, how does the IC50 read?
**A.** 0.189 µM

**Q.** For COc1cc(C(=O)NCCc2ccc(C)c(C)c2)ccc1-n1cnc(C)c1 [Example 64, N-[2-(3,4-dimethyl-phenyl)ethyl]-3-methoxy-4-(4-methyl-1H-imidazol-1-yl)benzamide], which IC50 is on record?
**A.** 0.395 µM

**Q.** Which IC50 does the source give for COc1cc(C(=O)NCCc2c(C)[nH]c3ccc(C)cc23)ccc1-n1cnc(C)c1 [Example 73, N-[2-(2,5-dimethyl-1H-indol-3-yl)ethyl]-3-methoxy-4-(4-methyl-1H-imidazol-1-yl)benzamide] here?
**A.** 0.444 µM

same assay, conditions: Homo sapiens, CHO, read-out: Aβ 42 IC50, Geometric mean of 2-8 determinations; human WT-APP overexpressing CHO cells

**Q.** With COc1cc(C(=O)NC(c2ccc(F)cc2)c2cccs2)ccc1-n1cnc(C)c1 (stereo not drawn) [Example 41, N-[(4-fluoro-phenyl)(2-thienyl)methyl]-3-methoxy-4-(4-methyl-1H-imidazol-1-yl)benzamide, trifluoroacetic acid salt] as the molecule, how does the IC50 read?
**A.** 0.328 µM

**Q.** How did the IC50 turn out when COc1cc(C(=O)N[C@@H]2COC[C@@H]2Oc2ccc(Br)cc2)ccc1-n1cnc(C)c1 [Example 48, N-[(3R,4R)-4-(4-bromophenoxy)-tetrahydro-furan-3-yl]-3-methoxy-4-(4-methylimidazol-1-yl)benzamide] was run?
**A.** 1.74 µM

**Q.** With COc1cc(C(=O)NCc2csc(-c3ccc(C(F)(F)F)cc3)n2)ccc1-n1cnc(C)c1 [Example 50, 3-methoxy-4-(4-methyl-1H-imidazol-1-yl)-N-({2-[4-(trifluoromethyl)phenyl]-1,3-thiazol-4-yl}methyl)benzamide] as the molecule, how does the IC50 read?
**A.** 0.152 µM

**Q.** For COc1cc(C(=O)NCc2ccc(F)c(Cl)c2)ccc1-n1cnc(C)c1 [Example 54, N-(3-chloro-4-fluorobenzyl)-3-methoxy-4-(4-methyl-1H-imidazol-1-yl)benzamide], which IC50 is on record?
**A.** 0.326 µM

**Q.** For COc1cc(C(=O)NCc2cccc(OC(F)(F)F)c2)ccc1-n1cnc(C)c1 [Example 55, 3-methoxy-4-(4-methyl-1H-imidazol-1-yl)-N-[3-(trifluoromethoxy)benzyl]benzamide], which IC50 is on record?
**A.** 0.332 µM

**Q.** With COc1cc(C(=O)NCCCCc2ccccc2)ccc1-n1cnc(C)c1 [Example 61, 3-methoxy-4-(4-methyl-1H-imidazol-1-yl)-N-(4-phenyl-butyl)benzamide] as the molecule, how does the IC50 read?
**A.** 0.356 µM

**Q.** Which IC50 does the source give for COc1cc(C(=O)NCC(C)Oc2ccccc2Cl)ccc1-n1cnc(C)c1 (stereo not drawn) [Example 74, N-[2-(2-chlorophenoxy)propyl]-3-methoxy-4-(4-methyl-1H-imidazol-1-yl)benzamide] here?
**A.** 0.466 µM

same assay, conditions: Homo sapiens, CHO, read-out: Aβ 42 IC50, Single IC50 determination; human WT-APP overexpressing CHO cells

**Q.** With COc1cc(C(=O)NCC2C3CC4CC(C3)CC2C4)ccc1-n1cnc(C)c1 (stereo not drawn) [Example 40, N-(adamantan-2-ylmethyl)-3-methoxy-4-(4-methyl-1H-imidazol-1-yl)benzamide] as the molecule, how does the IC50 read?
**A.** 0.185 µM

**Q.** For COc1cc(C(=O)N2CC[C@@H](Oc3ccccc3C(F)(F)F)C2)ccc1-n1cnc(C)c1 [Example 69, 1-[2-methoxy-4-({(3R)-3-[2-(trifluoromethyl)phenoxy]pyrrolidin-1-yl}carbonyl)phenyl]-4-methyl-1H-imidazole], which IC50 is on record?
**A.** 0.421 µM

same assay, conditions: read-out: Aβ 42 IC50; Geometric mean of 2-8 determinations; human WT-APP overexpressing CHO cells

**Q.** Which IC50 does the source give for COc1cc(C(=O)NCC(CO)c2cccc(C(F)(F)F)c2)ccc1-n1cnc(C)c1 (stereo not drawn) [Example 35, N-{3-hydroxy-2-[3-(trifluoro-methyl)phenyl]propyl}-3-methoxy-4-(4-methyl-1H-imidazol-1-yl) benzamide] here?
**A.** 0.91 µM

**Q.** How did the IC50 turn out when COc1cc(C(=O)NCC2(c3ccc(Cl)cc3)CCCC2)ccc1-n1cnc(C)c1 [Example 36, N-{[1-(4-chlorophenyl)cyclopentyl]methyl}-3-methoxy-4-(4-methyl-1H-imidazol-1-yl) benzamide] was run?
**A.** 0.209 µM

**Q.** How did the IC50 turn out when COc1cc(C(=O)NCCc2nc3ccc(Cl)cc3o2)ccc1-n1cnc(C)c1 [Example 38, N-[2-(6-chloro-1,3-benzoxazol-2-yl)ethyl]-3-methoxy-4-(4-methyl-1H-imidazol-1-yl) benzamide] was run?
**A.** 0.354 µM

**Q.** COc1cc(C(=O)NCc2cccc(C(=O)c3ccccc3)c2)ccc1-n1cnc(C)c1 [Example 42, N-(3-benzoyl-benzyl)-3-methoxy-4-(4-methyl-1H-imidazol-1-yl) benzamide] was tested. Which IC50 did it give?
**A.** 0.316 µM

**Q.** COc1cc(C(=O)NCc2ccc(C(=O)c3ccccc3)cc2)ccc1-n1cnc(C)c1 [Example 43, N-(4-benzoyl-benzyl)-3-methoxy-4-(4-methyl-1H-imidazol-1-yl) benzamide] was tested. Which IC50 did it give?
**A.** 0.582 µM

**Q.** COc1cc(C(=O)NCc2csc(-c3cccs3)n2)ccc1-n1cnc(C)c1 [Example 44, 3-methoxy-4-(4-methyl-1H-imidazol-1-yl)-N-{[2-(2-thienyl)-1,3-thiazol-4-yl]methyl} benzamide] was tested. Which IC50 did it give?
**A.** 0.575 µM

**Q.** With COc1cc(C(=O)NCc2nc(-c3ccc(Cl)cc3)no2)ccc1-n1cnc(C)c1 [Example 45, N-{[3-(4-chlorophenyl)-1,2,4-oxadiazol-5-yl]methyl}-3-methoxy-4-(4-methyl-1H-imidazol-1-yl) benzamide, formic acid salt] as the molecule, how does the IC50 read?
**A.** 0.73 µM

**Q.** For COc1cc(C(=O)NCC2CCCC2)ccc1-n1cnc(C)c1 [Example 47, N-cyclopentyl-methyl-3-methoxy-4-(4-methyl-imidazol-1-yl)-benzamide], which IC50 is on record?
**A.** 1.2 µM

**Q.** COc1cc(C(=O)NCc2ccc(-c3ccc(Cl)cc3)s2)ccc1-n1cnc(C)c1 [Example 49, N-{[5-(4-chlorophenyl)-2-thienyl]methyl}-3-methoxy-4-(4-methyl-1H-imidazol-1-yl) benzamide] was tested. Which IC50 did it give?
**A.** 0.137 µM

**Q.** With COc1cc(C(=O)NCCc2c[nH]c3ccc(Br)cc23)ccc1-n1cnc(C)c1 [Example 52, N-[2-(5-bromo-1H-indol-3-yl)ethyl]-3-methoxy-4-(4-methyl-1H-imidazol-1-yl) benzamide] as the molecule, how does the IC50 read?
**A.** 0.251 µM

**Q.** For COc1cc(C(=O)NCc2csc(-c3ccc(Cl)cc3)n2)ccc1-n1cnc(C)c1 [Example 53, N-{[2-(4-chlorophenyl)-1,3-thiazol-4-yl]methyl}-3-methoxy-4-(4-methyl-1H-imidazol-1-yl) benzamide], which IC50 is on record?
**A.** 0.306 µM

**Q.** How did the IC50 turn out when COc1cc(C(=O)NC(C)COc2c(C)cccc2C)ccc1-n1cnc(C)c1 (stereo not drawn) [Example 56, N-[2-(2,6-dimethyl-phenoxy)-1-methylethyl]-3-methoxy-4-(4-methyl-1H-imidazol-1-yl) benzamide] was run?
**A.** 0.337 µM

**Q.** How did the IC50 turn out when COc1cc(C(=O)NCc2ccc(OC(F)(F)F)cc2)ccc1-n1cnc(C)c1 [Example 57, 3-methoxy-4-(4-methyl-1H-imidazol-1-yl)-N-[4-(trifluoro-methoxy)benzyl] benzamide] was run?
**A.** 0.339 µM

**Q.** For COc1cc(C(=O)NCc2sc3c(F)ccc(F)c3c2Cl)ccc1-n1cnc(C)c1 [Example 58, N-[(3-chloro-4,7-difluoro-1-benzothien-2-yl)methyl]-3-methoxy-4-(4-methyl-1H-imidazol-1-yl) benzamide], which IC50 is on record?
**A.** 0.346 µM

**Q.** Which IC50 does the source give for COc1cc(C(=O)NCc2ccc(Cl)cc2C)ccc1-n1cnc(C)c1 [Example 59, N-(4-chloro-2-methylbenzyl)-3-methoxy-4-(4-methyl-1H-imidazol-1-yl) benzamide] here?
**A.** 0.351 µM

**Q.** COc1cc(C(=O)NCc2cccc(Oc3ccccc3)c2)ccc1-n1cnc(C)c1 [Example 60, 3-methoxy-4-(4-methyl-1H-imidazol-1-yl)-N-(3-phenoxybenzyl) benzamide] was tested. Which IC50 did it give?
**A.** 0.353 µM

**Q.** COc1cc(C(=O)NCc2cc(F)cc(C(F)(F)F)c2)ccc1-n1cnc(C)c1 [Example 62, N-[3-fluoro-5-(trifluoromethyl)benzyl]-3-methoxy-4-(4-methyl-1H-imidazol-1-yl) benzamide] was tested. Which IC50 did it give?
**A.** 0.369 µM

**Q.** With COc1cccc(C[C@@H]2CCC[C@@H]2NC(=O)c2ccc(-n3cnc(C)c3)c(OC)c2)c1 [Example 63, 3-methoxy-N-[(1S,2S)-2-(3-methoxybenzyl)cyclopentyl]-4-(4-methyl-1H-imidazol-1-yl) benzamide] as the molecule, how does the IC50 read?
**A.** 0.391 µM

**Q.** Which IC50 does the source give for COc1cccc(C2(CNC(=O)c3ccc(-n4cnc(C)c4)c(OC)c3)CCCC2)c1 [Example 65, 3-methoxy-N-{[1-(3-methoxyphenyl)cyclopentyl]methyl}-4-(4-methyl-1H-imidazol-1-yl) benzamide] here?
**A.** 0.41 µM

**Q.** For COc1cc(C(=O)NCc2ccc(F)c(C(F)(F)F)c2)ccc1-n1cnc(C)c1 [Example 66, N-[4-fluoro-3-(trifluoromethyl)benzyl]-3-methoxy-4-(4-methyl-1H-imidazol-1-yl) benzamide], which IC50 is on record?
**A.** 0.41 µM

**Q.** Which IC50 does the source give for COc1cc(C(=O)NCc2ccc(Cl)c(Cl)c2)ccc1-n1cnc(C)c1 [Example 67, N-(3,4-dichlorobenzyl)-3-methoxy-4-(4-methyl-1H-imidazol-1-yl) benzamide] here?
**A.** 0.41 µM

**Q.** How did the IC50 turn out when COc1cc(C(=O)NCCc2nc3cccc(Cl)c3o2)ccc1-n1cnc(C)c1 [Example 68, N-[2-(7-chloro-1,3-benzoxazol-2-yl)ethyl]-3-methoxy-4-(4-methyl-1H-imidazol-1-yl) benzamide] was run?
**A.** 0.418 µM

**Q.** How did the IC50 turn out when COc1cc(C(=O)NCc2sc3ccccc3c2Cl)ccc1-n1cnc(C)c1 [Example 70, N-[(3-chloro-1-benzothien-2-yl)methyl]-3-methoxy-4-(4-methyl-1H-imidazol-1-yl) benzamide] was run?
**A.** 0.425 µM

**Q.** COc1cc(C(=O)NCCc2cc(C)ccc2C)ccc1-n1cnc(C)c1 [Example 71, N-[2-(2,5-dimethylphenyl)ethyl]-3-methoxy-4-(4-methyl-1H-imidazol-1-yl) benzamide] was tested. Which IC50 did it give?
**A.** 0.429 µM

**Q.** How did the IC50 turn out when COc1cc(C(=O)N[C@@H]2CCC[C@@H]2Cc2ccccc2)ccc1-n1cnc(C)c1 [Example 72, N-[(1R,2R)-2-benzylcyclopentyl]-3-methoxy-4-(4-methyl-1H-imidazol-1-yl) benzamide] was run?
**A.** 0.442 µM

**Q.** COc1cc(C(=O)NCc2ccccc2OC(F)(F)F)ccc1-n1cnc(C)c1 [Example 75, 3-methoxy-4-(4-methyl-1H-imidazol-1-yl)-N-[2-(trifluoromethoxy)benzyl] benzamide] was tested. Which IC50 did it give?
**A.** 0.469 µM

same assay, conditions: read-out: Aβ 42 IC50; Single IC50 determination; human WT-APP overexpressing CHO cells

**Q.** For COc1cc(C(=O)NCC2(c3ccc(Br)cc3)CC2)ccc1-n1cnc(C)c1 [Example 39, N-{[1-(4-bromophenyl)cyclopropyl]methyl}-3-methoxy-4-(4-methyl-1H-imidazol-1-yl) benzamide], which IC50 is on record?
**A.** 0.248 µM
